Here are results for four compounds from patent publication US5780441A, “Sphingoglycolipid compounds and therapeutic uses thereof” (Kirin Beer Kabushiki Kaisha, priority 1993, dated 1998).

One experiment has as its system lethally irradiated mice. The experiment can be described thus: Radioprotective effect: life-span prolongation of lethally irradiated mice. The following applies: 0.1 mg/kg i.v. days 0, 4, 8, 9 Gy X-ray, groups of 10. The experiment is classed as in vivo, mouse (BDF1 female). How it is done:
Life-span-prolonging effects of the present compounds on lethally irradiated mice.
Experiment was performed with BDF1 female mice (6 weeks old) purchased from NIPPON SLC K.K., which were divided into groups consisting of 10 animals. Mice were irradiated generally with 9 Gy of X-ray with an X-ray generating apparatus, Hitachi, MBR-1520R (radiation day: day 0). Samples at a dose of 0.1 mg/kg were administered into tail vein on days 0, 4 and 8 in order to observe the mortality of the animals for 40 days.
In the table, two experiments are separated by the broken line.

In another experiment the test system is mouse splenic lymphocyte. The experiment can be described thus: In vitro mouse splenic lymphocyte-proliferation-stimulating effect (3H-TdR uptake). The experiment is classed as cell-based, mouse (BDF1 female). The conditions noted are these: 2 days; for activity at 1 µg/mL / activity at 0.1 µg/mL / activity at 0.01 µg/mL / activity at 0.001 µg/mL: Mus musculus, Splenic lymphocyte, 48 h, read-out: Uptake of 3H-TdR (% of control), splenic lymphocytes; for activity at 0.1 µg/mL: 10^-1 μg/ml; for activity at 0.01 µg/mL: 10^-2 μg/ml; for Uptake of 3H-TdR (% of control), splenic lymphocytes: 2880 min. How it is done: i) In vitro mouse splenic lymphocyte growth promoting effects of the present compounds
Experiment was performed with BDF1 female mice (6 weeks old) purchased from NIPPON SLC K.K. Spleens were removed from mice, and spleen cells were brayed with slide glasses and hemolized with NH4 Cl. 2×10^6cells/ml of the spleen cells which had been hemolized were suspended in 10% FCS RPMI 1640. The cell suspension (100 μl/well) and a vehicle or sample (10 μl/well) which was prepared so as to have a final level shown in Table 3 were added into wells of a round-bottomed 96 well plate, and cultured under the condition of 5% CO2 at 37° C. for 2 days. 0.5 μCi/well of ^3 H-thymidine (^3 H-TdR) was added. After 6 hours, the cells were harvested, and the amount of ^3 H-TdR uptaken into nucleus was measured by a liquid scintillation counter. The ratio (%) of the uptake of ^3 H-TdR in the sample group to that in the vehicle group was calculated and used as the in vitro mouse splenic lymphocyte-proliferation-stimulating rate.

Experiment [1] deals with P388 mouse leukemia cells. Put plainly: Life-span-prolonging (anti-tumor) effect on mice subcutaneously inoculated with P388 mouse leukemia cells. The experiment is classed as in vivo, mouse (CDF1 female). The conditions noted are these: for Survival days ave. ± s. d.: all marked ** (p < 0.01); for response vs control in vivo at 0.1 mg/kg: Mus musculus, P388, iv, read-out: T/C (%). As to the method:
i) Anti-tumor effect of the compound of the present invention on mice subcutaneously inoculated with P388 mouse leukemia cells.
Experiment was performed with CDF1 female mice (6 weeks) purchased from NIPPON SLC K.K., which were divided into groups consisting of 5 animals. […]. In this connection, lentinan and picibanil were administered intravenously on days 1, 3, 5, 7 and 9 after implantation, and sizofilan was administered subcutaneously on days 1 through 9. Statistical analysis was performed according to the Mann-Whiteney test.

The subject of the next experiment is mouse bone marrow cells. Put plainly: In vitro mouse bone marrow cell-proliferation-promoting effect (3H-TdR uptake). In kind it is cell-based, mouse (BDF1 female). The following applies: 4 days; for activity at 0.1 µg/mL / activity at 0.01 µg/mL: Mus musculus, Bone marrow cell, 96 h, read-out: Uptake of 3H-TdR (% of control), bone marrow cells; for Uptake of 3H-TdR (% of control), bone marrow cells: 5760 min. As to the method: In vitro mouse bone marrow cell-proliferation-promoting effect of the present compound
Experiment was performed with BDF1 female mice (6 weeks old) purchased from NIPPON SLC K.K. Bone marrow cells were removed from the femoral bone of mice by the conventional manner, floated on 10% FCS RPMI 1640, layered over Lympholite M, and centrifuged to give a monocyte fraction. 1×10^6 cells/ml of the monocyte fraction was suspended in 10% FCS RPMI 1640. The cell suspension (100 μl/well) and a vehicle or sample (10 μl/well) which was prepared so as to have a final level shown in Table 2 were added into a wells of round-bottomed 96 well plate, and cultured under the condition of 5% CO2 at 37° C. for 4 days. 0.5 μCi/well of ^3 H-thymidine (^3 H-TdR) was added. After 6 hours, the cells were harvested, and the amount of ^3 H-TdR uptaken into nucleus was measured by a liquid scintillation counter. The ratio of the uptake of ^3 H-TdR in the sample group to that in the vehicle group was calculated and used as the activation rate for promoting in vitro mouse bone marrow cell growth.

Experiment [2] relates to mixed lymphocyte culture reaction (spleen cells of C57BL/6 and BALB/C mice). The experiment can be described thus: Mixed lymphocyte culture reaction (MLR). The experiment is classed as cell-based, mouse (C57BL/6 stimulator, BALB/C responder). The following applies: 42 hours; for activity at 1 µg/mL / activity at 0.1 µg/mL: Mus musculus, Lymphocyte, read-out: MLR activating rate (%); for MLR activating rate (%): 2520 min. As to the method:
ii) Mixed lymphocyte culture reaction (MLR) of the compounds of the present invention
Spleen cells were prepared from C57BL/6 mice and treated with 50 μg/ml of mitomycin C for 30 minutes. The treated cells were used as stimulator cells, and the spleen cells of BALB/C mice as responder cells. 2×10^6 cells/ml of the both spleen cells were suspended in 10% FCS RPMI1640 as a culture medium. The above-described cells (50 μl/well) and a sample (10 μl/well) were added into wells of a round-bottomed 96 well plate, and cultured under the condition of 5% CO2 at 37° C. for 42 hours. 0.5 μCi/well of ^3 H-thymidine (^3 H-TdR) was added. After 8 hours, the cells were harvested, and the amount of uptaken ^3 H-TdR was measured by a liquid scintillation counter to calculate the ratio (%) of the uptake of ^3 H-TdR in the sample group to that in the vehicle group as the MLR activating rate.

The test system of another experiment is B16 mouse melanoma cells. The experiment can be described thus: Tumor growth inhibition in mice subcutaneously inoculated with B16 mouse melanoma cells. The experiment is classed as in vivo, mouse (BDF1 female). The following applies: 0.1 mg/kg i.v. days 1, 5, 9; maximum during 20 days. How it is done:
ii) Anti-tumor effect of the compound according to the present invention on mice subcutaneously inoculated with B16 mouse melanoma cells.
Experiment was performed with BDF1 female mice (6 weeks) purchased from NIPPON SLC K.K., which were divided into groups consisting of 6 animals. […]. The subcutaneous tumor volumes [(length×width×height)/2] were measured on days 8, 12, 16 and 20 after implantation to determine the tumor growth inhibiting rate (TGIR) of each sample. TGIR was calculated from the following formula: […]
wherein C: tumor volume in the control group, and
T: tumor volume in the sample adminitered groups.
In this connection, Compounds 1-6 and 7-9 were tested in the same time, respectively.

[3] abbreviates: 0.1 mg/kg i.v. on days 1, 5 and 9.
The mark [4] stands for this setting: 0.1 mg/kg i.v. on days 1, 5 and 9, survival vs vehicle.

On to `CCCCCCCCCCCCCCCCCCCCCC[C@@H](O)C(=O)N[C@@H](CO[C@H]1O[C@H](CO)[C@H](O)[C@H](O[C@H]2O[C@H](CO)[C@H](O)[C@H](O)[C@H]2NC(C)=O)[C@H]1O[C@H]1O[C@H](CO)[C@@H](O)[C@H](O)[C@H]1O)[C@H](O)[C@H](O)CCCCCCCCCCCC` [Compound 1, O-(N-acetyl-2-amino-2-deoxy-α-D-galactopyranosyl)-(1→3)-O-[α-D-glucopyranosyl-(1→2)]-O-α-D-galactopyranosyl-(1→1)-(2S,3S,4R)-2-amino-N-[(R)-2-hydroxytetracosanoyl]-1,3,4-hexadecanetriol], for which the “Number of surviving mice” value worked out at 10 mice in the experiment on lethally irradiated mice (day 10); 9 mice in the experiment with lethally irradiated mice (day 15); 7 mice in the experiment with lethally irradiated mice (day 20); 6 mice in the experiment on lethally irradiated mice (day 25); 6 mice in the experiment with lethally irradiated mice (day 30); 6 mice with lethally irradiated mice (day 35). Moreover, the “Number of surviving mice” value in the experiment on lethally irradiated mice (day 40) stood at 6 mice. In addition, the activity at 1 µg/mL in the experiment with mouse splenic lymphocyte (10^0 μg/ml) was 843%; in experiment [2] (1 × 10^0 μg/ml) it was 222%. For the same compound, the activity at 0.1 µg/mL in the experiment with mouse splenic lymphocyte turned out to be 738%; in the experiment on mouse bone marrow cells (10^-1 μg/ml) it was 211%; in experiment [2] (1 × 10^-1 μg/ml), 142%. The activity at 0.01 µg/mL in the experiment on mouse splenic lymphocyte stood at 332%; in the experiment with mouse bone marrow cells (10^-2 μg/ml), 133%. In addition, the activity at 0.001 µg/mL with mouse splenic lymphocyte (10^-3 μg/ml) was found to be 184%. Also, the “Survival days ave. ± s. d.” value in experiment [1] (setting [3]) came to 15.3 ± 0.8 days. The response vs control in vivo at 0.1 mg/kg in experiment [1] (setting [4]) is 120%.
Consider `CCCCCCCCCCCCCCCCCCCCCC[C@@H](O)C(=O)N[C@@H](CO[C@H]1O[C@H](CO)[C@H](O)[C@H](O[C@H]2O[C@H](CO)[C@H](O)[C@H](O)[C@H]2NC(C)=O)[C@H]1O[C@H]1O[C@H](CO)[C@@H](O)[C@H](O)[C@H]1O)[C@H](O)[C@H](O)CCCCCCCCCCCCCC` [Compound 8, O-(N-acetyl-2-amino-2-deoxy-α-D-galactopyranosyl)-(1→3)-O-[α-D-glucopyranosyl-(1→2)]-O-α-D-galactopyranosyl-(1→1)-(2S,3S,4R)-2-amino-N-[(R)-2-hydroxytetracosanoyl]-1,3,4-octadecanetriol], for which the “Uptake of 3H-TdR (% of control), splenic lymphocytes” value with mouse splenic lymphocyte (10^0 μg/ml) was 997 % of control; in the experiment with mouse splenic lymphocyte (10^-3 μg/ml), 609 % of control. Moreover, the “Survival days ave. ± s. d.” value in experiment [1] (setting [3]) worked out at 16.0 ± 0.7 days. In addition, in experiment [1] (setting [4]), the “T/C (%)” value is on record as 125%. For the same compound, the “Maximum tumor growth inhibiting rate, TGIR (%)” value in the experiment on B16 mouse melanoma cells is given as 78.4%. Besides, the “Uptake of 3H-TdR (% of control), bone marrow cells” value in the experiment on mouse bone marrow cells (10^-1 μg/ml) is given as 240 % of control; with mouse bone marrow cells (10^-2 μg/ml) it was 167 % of control. For the same compound, the results for the “MLR activating rate (%)” value in experiment [2] (1 × 10^0 μg/ml) and in experiment [2] (1 × 10^-1 μg/ml) were 286% and 232%, respectively.
`CCCCCCCCCCCCCCCCCCCCCC[C@@H](O)C(=O)N[C@@H](CO[C@H]1O[C@H](CO)[C@H](O)[C@H](O[C@@H]2O[C@@H]([C@H](O)CO)[C@H](O)[C@H]2O)[C@H]1O)[C@H](O)[C@H](O)CCCCCCCCCCCCC(C)C` [Compound 17, O-β-D-galactofuranosyl-(1→3)-O-α-D-galactopyranosyl-(1→1)-(2S,3S,4R)-2-amino-N-[(R)-2-hydroxytetracosanoyl]-17-methyl-1,3,4-octadecanetriol]: the activity at 1 µg/mL turned out to be 781% with mouse splenic lymphocyte (10^0 μg/ml) and 283% in experiment [2] (1 × 10^0 μg/ml). In addition, in the experiment on mouse splenic lymphocyte (10^-3 μg/ml), the activity at 0.001 µg/mL was 767%. For the same compound, in experiment [1] (setting [3]), the “Survival days ave. ± s. d.” value stood at 14.8 ± 0.8 days. Besides, the response vs control in vivo at 0.1 mg/kg in experiment [1] (setting [4]) was 116%. In addition, the activity at 0.1 µg/mL in the experiment with mouse bone marrow cells (10^-1 μg/ml) worked out at 592%; in experiment [2] (1 × 10^-1 μg/ml), 242%.
As to `CCCCCCCCCCCCCCCCCCCCCCCCCC(=O)N[C@@H](CO[C@H]1O[C@H](CO)[C@@H](O[C@H]2O[C@H](CO)[C@@H](O)[C@H](O)[C@H]2O)[C@H](O)[C@H]1O)[C@H](O)[C@H](O)CCCCCCCCCCCCCC` [Compound 35, O-α-D-glucopyranosyl-(1→4)-O-α-D-glucopyranosyl-(1→1)-(2S,3S,4R)-2-amino-N-hexacosanoyl-1,3,4-octadecanetriol], the activity at 1 µg/mL with mouse splenic lymphocyte (10^0 μg/ml) is 431%; in experiment [2] (1 × 10^0 μg/ml) it was 165%. Moreover, the values for the activity at 0.1 µg/mL (in the experiment with mouse splenic lymphocyte; in the experiment with mouse bone marrow cells (10^-1 μg/ml); in experiment [2] (1 × 10^-1 μg/ml)) were 874%, 223% and 133%, respectively. The activity at 0.01 µg/mL in the experiment on mouse splenic lymphocyte was found to be 803%; in the experiment with mouse bone marrow cells (10^-2 μg/ml), 148%. Also, the activity at 0.001 µg/mL with mouse splenic lymphocyte (10^-3 μg/ml) was 538%. In experiment [1] (setting [3]), the “Survival days ave. ± s. d.” value is reported as 14.8 ± 1.3 days. Further, in experiment [1] (setting [4]), the response vs control in vivo at 0.1 mg/kg was 116%. In experiment [1] (P388 s.c. system), the “life-span-prolonging effect (anti-tumor effect), in words” value is listed as “intensive anti-tumor effects almost in the same level as that of Compound b”.
